Literature values in patent publication US7939518B2, “Method of treating post-surgical acute pain” (Aaipharma Inc., priority 2008, dated 2011).

Tested on: cyclo-oxygenase

## O=C(O)Cc1ccccc1Nc1c(Cl)cccc1Cl [Diclofenac]
  Concentrations at which cyclo-oxygenase is inhibited: micromolar concentrations
